Results on one molecule are retold here after ChEMBL document CHEMBL4330132, “5-Keto-3-cyano-2,4-diaminothiophenes as selective maternal embryonic leucine zipper kinase inhibitors” (Bioorg Med Chem Lett, 2019).

The target of experiment [1] is Mitogen-activated protein kinase 11 (Homo sapiens) (UniProt Q15759). Description: Binding affinity to wild-type human full length p38-beta (M1 to Q364 residues) expressed in bacterial expression system assessed as residual binding level at 1 uM by Kinomescan method relative to control.
The target of experiment [2] is Serine/threonine-protein kinase 33 (Homo sapiens) (UniProt Q9BYT3). The experiment is described as follows: Binding affinity to wild-type human full length STK33 (M1 to L514 residues) expressed in bacterial expression system assessed as residual binding level at 1 uM by Kinomescan method relative to control.
The target of experiment [3] is Ephrin type-A receptor 7 (Homo sapiens) (UniProt Q15375). Description: Binding affinity to wild-type human partial length EPHA7 (Y608 to S912 residues) expressed in bacterial expression system assessed as residual binding level at 1 uM by Kinomescan method relative to control.
Experiment [4] addresses Casein kinase I isoform epsilon (Homo sapiens) (UniProt P49674). The experiment is described as follows: Binding affinity to wild-type human full length CSNK1E (M1 to K416 residues) expressed in bacterial expression system assessed as residual binding level at 1 uM by Kinomescan method relative to control.
The target of experiment [5] is Phosphatidylinositol 4-kinase beta (Homo sapiens) (UniProt Q9UBF8). Description: Binding affinity to wild-type human full length PIK4CB (M1 to M828 residues) expressed in mammalian expression system assessed as residual binding level at 1 uM by Kinomescan method relative to control.
The target in experiment [6] is Myotonin-protein kinase (Homo sapiens) (UniProt Q09013). Description: Binding affinity to wild-type human partial length DMPK (V47 to V415 residues) expressed in bacterial expression system assessed as residual binding level at 1 uM by Kinomescan method relative to control.
Experiment [7] has as its system Receptor-type tyrosine-protein kinase FLT3 (Homo sapiens), P36888 [N841I]. Description: Binding affinity to human partial length FLT3 N841I mutant (V592 to Y969 residues) expressed in bacterial expression system assessed as residual binding level at 1 uM by Kinomescan method relative to control.
In experiment [8] the target is Dual specificity mitogen-activated protein kinase kinase 5 (Homo sapiens) (UniProt Q13163). The experiment is described as follows: Binding affinity to wild-type human partial length MEK5 (L98 to P448 residues) expressed in mammalian expression system assessed as residual binding level at 1 uM by Kinomescan method relative to control.
Chain of Dual specificity mitogen-activated protein kinase kinase 5 (Homo sapiens) (Q13163 whole entry, the tested form may be a part): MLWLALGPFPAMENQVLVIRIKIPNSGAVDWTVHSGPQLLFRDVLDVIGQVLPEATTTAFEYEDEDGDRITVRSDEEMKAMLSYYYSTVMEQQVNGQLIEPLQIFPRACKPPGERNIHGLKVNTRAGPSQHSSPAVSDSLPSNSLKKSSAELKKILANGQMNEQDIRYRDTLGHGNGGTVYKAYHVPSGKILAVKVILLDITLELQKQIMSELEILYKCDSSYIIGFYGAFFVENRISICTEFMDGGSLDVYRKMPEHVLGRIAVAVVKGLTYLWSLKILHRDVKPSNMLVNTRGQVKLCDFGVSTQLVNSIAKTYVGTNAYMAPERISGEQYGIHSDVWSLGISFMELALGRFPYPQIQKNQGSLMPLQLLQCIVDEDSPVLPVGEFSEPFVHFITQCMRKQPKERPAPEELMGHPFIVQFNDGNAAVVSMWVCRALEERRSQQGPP

Chain of Serine/threonine-protein kinase 33 (Homo sapiens) (Q9BYT3 whole entry, looked up, the tested form may be a part): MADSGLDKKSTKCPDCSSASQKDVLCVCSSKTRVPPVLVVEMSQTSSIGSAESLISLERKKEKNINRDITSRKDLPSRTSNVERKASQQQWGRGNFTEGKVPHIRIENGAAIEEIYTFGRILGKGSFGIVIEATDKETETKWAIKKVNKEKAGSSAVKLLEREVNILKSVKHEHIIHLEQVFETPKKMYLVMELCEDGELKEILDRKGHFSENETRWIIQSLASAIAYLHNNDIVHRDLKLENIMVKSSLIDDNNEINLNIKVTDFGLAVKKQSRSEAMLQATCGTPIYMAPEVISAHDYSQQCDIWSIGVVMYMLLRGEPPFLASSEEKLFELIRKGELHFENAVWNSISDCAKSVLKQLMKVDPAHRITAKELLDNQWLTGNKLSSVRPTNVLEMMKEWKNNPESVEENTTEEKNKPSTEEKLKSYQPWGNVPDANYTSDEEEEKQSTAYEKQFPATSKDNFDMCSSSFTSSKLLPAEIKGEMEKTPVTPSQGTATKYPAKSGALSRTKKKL
Chain of Myotonin-protein kinase (Homo sapiens) (Q09013 whole entry, the tested form may be a part): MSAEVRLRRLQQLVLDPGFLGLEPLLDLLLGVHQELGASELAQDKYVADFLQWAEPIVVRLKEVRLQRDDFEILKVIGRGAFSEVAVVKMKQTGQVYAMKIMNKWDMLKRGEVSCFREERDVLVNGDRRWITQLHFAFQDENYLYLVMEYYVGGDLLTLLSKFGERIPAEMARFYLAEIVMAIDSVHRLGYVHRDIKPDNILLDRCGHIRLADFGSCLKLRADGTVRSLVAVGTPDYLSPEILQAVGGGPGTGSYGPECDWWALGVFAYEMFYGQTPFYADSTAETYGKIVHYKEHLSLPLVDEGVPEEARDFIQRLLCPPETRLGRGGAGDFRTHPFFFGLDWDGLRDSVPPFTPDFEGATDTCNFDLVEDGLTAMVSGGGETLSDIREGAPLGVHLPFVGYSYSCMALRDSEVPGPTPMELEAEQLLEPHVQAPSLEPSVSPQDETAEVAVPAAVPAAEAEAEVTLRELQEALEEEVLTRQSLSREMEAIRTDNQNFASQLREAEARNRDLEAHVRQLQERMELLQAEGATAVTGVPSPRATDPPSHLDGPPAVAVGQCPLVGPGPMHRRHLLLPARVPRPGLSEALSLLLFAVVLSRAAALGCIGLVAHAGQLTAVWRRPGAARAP
Chain of Casein kinase I isoform epsilon (Homo sapiens) (P49674 whole entry, looked up, the tested form may be a part, canonical isoform): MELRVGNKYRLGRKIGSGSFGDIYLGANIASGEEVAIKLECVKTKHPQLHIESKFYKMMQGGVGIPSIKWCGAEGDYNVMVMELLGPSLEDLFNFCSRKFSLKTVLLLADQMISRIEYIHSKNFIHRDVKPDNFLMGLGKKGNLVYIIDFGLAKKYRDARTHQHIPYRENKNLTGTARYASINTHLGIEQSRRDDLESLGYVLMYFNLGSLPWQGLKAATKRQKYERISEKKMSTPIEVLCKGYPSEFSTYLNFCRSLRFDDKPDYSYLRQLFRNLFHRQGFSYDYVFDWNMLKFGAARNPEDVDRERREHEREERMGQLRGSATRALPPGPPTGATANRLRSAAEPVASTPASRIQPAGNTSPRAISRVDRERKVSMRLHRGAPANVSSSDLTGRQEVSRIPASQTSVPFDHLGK
Chain of Phosphatidylinositol 4-kinase beta (Homo sapiens) (Q9UBF8 2-816 limits assumed): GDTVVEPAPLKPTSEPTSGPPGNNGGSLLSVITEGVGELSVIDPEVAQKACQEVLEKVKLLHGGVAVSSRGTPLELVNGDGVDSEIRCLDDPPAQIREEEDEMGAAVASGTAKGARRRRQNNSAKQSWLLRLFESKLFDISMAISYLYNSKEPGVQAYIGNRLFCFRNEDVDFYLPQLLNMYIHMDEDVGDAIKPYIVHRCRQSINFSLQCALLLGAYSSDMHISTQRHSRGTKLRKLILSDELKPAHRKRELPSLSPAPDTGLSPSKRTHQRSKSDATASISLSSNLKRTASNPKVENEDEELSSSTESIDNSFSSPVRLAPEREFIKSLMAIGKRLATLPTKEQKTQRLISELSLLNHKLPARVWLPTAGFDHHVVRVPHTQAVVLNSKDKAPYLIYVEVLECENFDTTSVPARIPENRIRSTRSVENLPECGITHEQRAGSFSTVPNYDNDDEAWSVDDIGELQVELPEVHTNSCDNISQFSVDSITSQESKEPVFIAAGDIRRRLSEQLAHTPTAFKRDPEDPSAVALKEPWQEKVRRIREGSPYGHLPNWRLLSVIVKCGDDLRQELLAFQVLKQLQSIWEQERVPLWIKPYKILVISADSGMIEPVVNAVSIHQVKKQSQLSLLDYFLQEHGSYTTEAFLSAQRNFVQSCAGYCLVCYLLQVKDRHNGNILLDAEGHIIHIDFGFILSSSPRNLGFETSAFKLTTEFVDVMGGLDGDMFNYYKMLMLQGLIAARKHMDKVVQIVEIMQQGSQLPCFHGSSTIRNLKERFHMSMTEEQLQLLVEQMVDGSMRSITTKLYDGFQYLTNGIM
Chain of Mitogen-activated protein kinase 11 (Homo sapiens) (Q15759 whole entry, the tested form may be a part): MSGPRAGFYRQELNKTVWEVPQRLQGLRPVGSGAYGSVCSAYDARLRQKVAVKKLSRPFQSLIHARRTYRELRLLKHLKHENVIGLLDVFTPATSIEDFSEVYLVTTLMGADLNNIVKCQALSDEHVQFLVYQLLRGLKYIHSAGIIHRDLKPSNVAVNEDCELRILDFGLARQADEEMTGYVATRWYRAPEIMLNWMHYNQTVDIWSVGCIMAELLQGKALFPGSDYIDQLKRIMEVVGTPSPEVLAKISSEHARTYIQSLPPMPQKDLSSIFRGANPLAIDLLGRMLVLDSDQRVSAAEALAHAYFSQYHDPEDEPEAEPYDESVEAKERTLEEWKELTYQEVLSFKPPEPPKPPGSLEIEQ
Chain of Ephrin type-A receptor 7 (Homo sapiens) (Q15375 28-998 limits assumed): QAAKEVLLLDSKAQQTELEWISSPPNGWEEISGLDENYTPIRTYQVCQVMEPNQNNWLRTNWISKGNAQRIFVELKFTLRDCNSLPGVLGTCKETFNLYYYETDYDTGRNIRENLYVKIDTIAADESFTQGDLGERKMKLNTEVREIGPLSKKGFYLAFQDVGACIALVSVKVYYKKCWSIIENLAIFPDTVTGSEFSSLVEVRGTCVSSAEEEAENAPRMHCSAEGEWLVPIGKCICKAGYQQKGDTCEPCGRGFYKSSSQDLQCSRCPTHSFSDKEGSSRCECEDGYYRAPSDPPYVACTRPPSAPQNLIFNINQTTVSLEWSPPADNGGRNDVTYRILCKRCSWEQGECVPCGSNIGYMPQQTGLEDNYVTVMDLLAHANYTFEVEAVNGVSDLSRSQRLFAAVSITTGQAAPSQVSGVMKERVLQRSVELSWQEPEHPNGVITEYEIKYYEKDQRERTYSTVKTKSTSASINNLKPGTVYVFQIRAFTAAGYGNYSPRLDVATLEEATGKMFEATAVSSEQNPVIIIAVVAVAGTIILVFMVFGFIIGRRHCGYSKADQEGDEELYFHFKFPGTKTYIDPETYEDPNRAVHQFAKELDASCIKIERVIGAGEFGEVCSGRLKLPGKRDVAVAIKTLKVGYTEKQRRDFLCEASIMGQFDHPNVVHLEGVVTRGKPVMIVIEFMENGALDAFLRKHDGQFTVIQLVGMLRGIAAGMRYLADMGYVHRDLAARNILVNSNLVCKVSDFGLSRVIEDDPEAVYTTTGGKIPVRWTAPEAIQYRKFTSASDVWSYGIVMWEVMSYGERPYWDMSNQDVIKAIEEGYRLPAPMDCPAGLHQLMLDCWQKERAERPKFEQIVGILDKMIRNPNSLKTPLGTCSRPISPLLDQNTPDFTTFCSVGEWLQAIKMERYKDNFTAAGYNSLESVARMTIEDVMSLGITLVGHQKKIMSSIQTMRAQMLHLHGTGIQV

For the molecule `CC(C)Nc1sc(C(=O)c2ccc(Cl)s2)c(N)c1C#N`, the Activity in experiment [1] was found to be 83%; in experiment [2], 57%; in experiment [3], 82%; in experiment [4], 61%; in experiment [5], 100%; in experiment [6], 100%. For the same molecule, the Activity was found to be 95% in experiment [7] and 100% in experiment [8].
